Laboratory results reported in patent US6506576B2 (priority 2001, dated 2003).
Where two headings read alike, the source gives them in different places.

Assays:
cerebellar granule cells [1] = settings: for concentration at which maximal effects on granule cell viability/lysis were observed / concentration at which significant effects on granule cell viability/lysis were initially detected: MTS reduction and LDH release, independent of culture condition (GCSF or NB-B27)
Experimental: Viability of the cerebellar granule cell culture was assessed using CellTiter 96® AQueous One Solution Cell Proliferation reagent (Promega, G3580). This colorimetric assay employs, 3-(4,5-dimethylthiazol-2-yl)-5-(3-carboxymethoxyphenyl)-2-(4-sulfophenyl)-2H-tetrazolium (MTS) and the electron coupling reagent, phenazine ethosulfate (PES). […] Briefly, prior to each MTS assay, 100 μl of media was removed from each well, transferred to new 96-well plate for subsequent LDH release analysis. To each cell containing well, 20 μl of MTS tetrazolium reagent was added to the remaining media (100 μl). Culture plates were incubated in the humidified incubator at 37° C. and in 5% CO2 for 2 hours. Following incubation the quantity of formazan product present was determined by measuring the absorbance at 490 nm using a VERSAmax® microplate reader and SOFTmax PRO software (Molecular Devices).
(§1) Granule cell cultures were seeded at an initial density of 1×10^5 cells per well and maintained in GCSF culture media for 7 day in vitro prior to toxicant exposure. On the day of treatment, L-Glutamate, tert-butyl-hydroperoxide (TBHP), hydrogen peroxide (H2O2), ionomycin (Sigma), and MK-801 (Calbiochem, San Diego) were prepared at required concentration in the appropriate media. Cultures were exposed to toxicants for 24 hours prior to viability analysis. Cultures receiving MK-801 were pretreated for 10 minutes prior to addition of L-glutamate, and negative control cultures were treated with fresh media. For dose-dependence of oxidative-induced injury H2O2 and TBHP stock solutions were serially diluted in media to 100× concentrations immediately before each experiment. The concentration of the H2O2 stock solution was determined spectrophotometrically before each experiment based on its absorbance using the equation: C=(Ab240/ε)×DF; where C is the concentration of H2O2 (mM), Ab240 is absorbance at 240 nm, ε is the extinction coefficient (0.0394 mM^−1 cm^−1), DF is the dilution factor, and the path-length of the spectrophotometer is 1 cm. Comparative analysis of granule cell viability/lyses in GCSF and NB-B27 was assessed using the MTS reduction and LDH release assays as described above.

cerebellar granule cells [2] = assay: LDH release assay of granule cell death after toxicant exposure; format: cell-based, rat
Experimental: The lactate dehydrogenase (LDH) released into the media was determined using Cyto Tox96® non-radioactive cytotoxicity assay (Promega). In this calorimetric assay, LDH converts lactate and nicotinamide adenine dinucleotide (NAD^+) to pyruvate and NADH, respectively. This initial reaction is coupled to a second reaction where diaphorase converts iodo-nitro-tetrazolium salt and NADH to a red colored formazan compound and NAD^+ respectively. Briefly, 50 μl of assay buffer was added to each 100 μl sample of media removed from each well prior to MTS analysis. Samples were then incubated in the dark for 30 minutes at room temperature, and then 50 μl of a stop solution (1M acetic acid) was added into each well and the absorbance at 490 nm was measured as above. Positive control samples of bovine heart LDH (800 units/ml; lot 11455502, Promega) were serially diluted into a final volume of 200 μl and assayed as described above.
as §1

[3] = test system: non-neuronal cells in cerebellar cultures; assay: Inhibition of non-neuronal cell proliferation in primary cerebellar cultures (visual inspection, staining); format: cell-based, rat
Experimental: Based on the calculated cell numbers, cerebellar cells were serially diluted in an appropriate volume of culture media and seeded into flat-bottom 96-well tissue culture plates pre-coated with poly-L-lysine (Becton Dickinson, Bedford, Mass.). The numbers of cerebellar cells seeded ranged from 6,250 to 400,000 cells per well (0.32 cm^2) in a final volume of 200 μl. Cultures were maintained in a humidified incubator in 5% CO2 at 37° C.
After 7-30 day in vitro, cultures were washed 3 times with phosphate buffered saline (PBS) and fixed for 20-30 minutes with 4% paraformaldehyde in 0.1M sodium phosphate buffer (pH 7.4; PB). Following fixation, cells were washed 3 times with PBS, and either stained with 1% methylene blue (Sigma) in deionized water for 5 minutes and destained with deionized water or permeablized for immunostaining with 0.2% Triton X-100 in PBS. Permeablized cells were washed 3 times with PBS, incubated for 1 hour in 5% normal horse serum in PB and then incubated overnight at 4° C. with a glial fibrillary acidic protein (GFAP) antiserum (1:5000 dilution; Dako, Carpintea, Calif.). Following incubation with primary antiserum, cells were extensively washed with PBS plus 0.1% Tween-20 and immunoreactivity was visualized with NiCl/3,3′-diaminobenzidine (DAB) using the avidin-biotin-complex (ABC) method (Vector Elite-universal; Vector Laboratories, Burlingame, Calif.). […]

[4] = 125 μM TBHP, 24 hours, 7 DIV cultures in GCSF
[5] = 125 μM TBHP, 24 hours, 7 DIV cultures in NB-B27
[6] = 400 μM H2O2, 24 hours, 7 DIV cultures in GCSF
[7] = 400 μM H2O2, 24 hours, 7 DIV cultures in NB-B27

CC(C)(C)OO [TBHP, tert-butyl-hydroperoxide]
MTS-reduction (cerebellar granule cells [1]; [4]): 37.9±0.8 % of control
MTS-reduction (cerebellar granule cells [1]; [5]): 43.7±1.9 % of control
concentration at which maximal effects on granule cell viability/lysis were observed (cerebellar granule cells [1]; 24 hours): 125 µM
concentration at which significant effects on granule cell viability/lysis were initially detected (cerebellar granule cells [1]; 24 hours): 62.5 µM
LDH-release (cerebellar granule cells [2]; [4]): 125.4±1.4 % of control
LDH-release (cerebellar granule cells [2]; [5]): 122.7±5.6 % of control

cytosine β-D-arabinofuranoside [AraC]
non-neuronal cell types in cultures ([3]; 10 μM AraC added after 24 hour in vitro, NB-B27 or GCSF): less than 5%
cells with morphological phenotype of small cerebellar granule cell neurons ([3]; 10 μM AraC added after 24 hours, 96-well plates, visual inspection): > 90%

OO [H2O2, hydrogen peroxide]
neuronal cell death (MTS reduction) (cerebellar granule cells [1]; 100 μM H2O2, 24 hours, GCSF, single experiment n=8): Statistically significant levels of neuronal cell death
MTS-reduction (cerebellar granule cells [1]; [6]): 41.5±1.0 % of control
MTS-reduction (cerebellar granule cells [1]; [7]): 47±1.2 % of control
concentration at which maximal effects on granule cell viability/lysis were observed (cerebellar granule cells [1]; 24 hours): 400 µM
concentration at which significant effects on granule cell viability/lysis were initially detected (cerebellar granule cells [1]; 24 hours): 200 µM
LDH-release (cerebellar granule cells [2]; [6]): 136.9±2.8 % of control
LDH-release (cerebellar granule cells [2]; [7]): 125±5.0 % of control

N[C@@H](CCC(=O)O)C(=O)O [L-glutamate, L-Glutamate]
granule cell viability (MTS reduction) (cerebellar granule cells [1]; 500 μM L-glutamate, 24 hours, GCSF, representative single experiment): 56.8±2 % of control cultures

C[C@]12N[C@H](Cc3ccccc31)c1ccccc12 [MK-801]
viability of cultures pretreated with antagonist prior to L-glutamate exposure (MTS reduction) (cerebellar granule cells [1]; 10 μM MK-801 pretreatment 10 minutes, then 500 μM L-glutamate 24 hours, GCSF): not significantly different from the mock-treated control cultures

C[C@H](CCC(=O)O)C[C@H](C)C[C@H](C)C(=O)/C=C(\O)[C@H](C)C[C@H](C)C/C=C/[C@@H](C)[C@@H](O)[C@@H](C)[C@@H](O)C[C@@H]1CC[C@@](C)([C@H]2CC[C@@](C)([C@@H](C)O)O2)O1 [ionomycin]
average maximal decrease in viability (MTS reduction) (cerebellar granule cells [1]; ionomycin treatment (10 nM per FIG. 6 legend), GCSF): 56±5 % of control
